Laboratory results reported in ChEMBL document CHEMBL4673302, “Efficient synthesis and antitumor evaluation of 4-aminomethyl-N-arylpyrazoles: Discovery of potent and selective agents for ovarian cancer” (Bioorg Med Chem, 2021).

Columns and labels:
[1] = tested on: U-251; assay: Anticancer activity against human U-251 cells assessed as cell growth inhibition measured after 48 hrs by sulforhodamine B assay; format: functional
[2] = tested on: MCF7; assay: Anticancer activity against human MCF7 cells assessed as cell growth inhibition measured after 48 hrs by sulforhodamine B assay; format: functional
[3] = tested on: 786-0; assay: Anticancer activity against human 786-0 cells assessed as cell growth inhibition measured after 48 hrs by sulforhodamine B assay; format: functional
[4] = tested on: NCI-H460; assay: Anticancer activity against human NCI-H460 cells assessed as cell growth inhibition measured after 48 hrs by sulforhodamine B assay; format: functional
[5] = tested on: PC-3; assay: Anticancer activity against human PC-3 cells assessed as cell growth inhibition measured after 48 hrs by sulforhodamine B assay; format: functional
[6] = tested on: OVCAR-3; assay: Anticancer activity against human OVCAR-3 cells assessed as cell growth inhibition measured after 48 hrs by sulforhodamine B assay; format: functional; conditions: 48 h
[7] = tested on: HT-29; assay: Anticancer activity against human HT-29 cells assessed as cell growth inhibition measured after 48 hrs by sulforhodamine B assay; format: functional
[8] = tested on: K562; assay: Anticancer activity against human K562 cells assessed as cell growth inhibition measured after 48 hrs by sulforhodamine B assay; format: functional; conditions: 48 h
[9] = tested on: HaCaT; assay: Cytotoxicity against human HaCaT cells assessed as cell growth inhibition measured after 48 hrs by sulforhodamine B assay; format: cell-based; conditions: hacat, 48 h

Row | Structure (SMILES) | GI50 ([1]; 48 h) [µM] | GI50 ([2]; 48 h) [µM] | GI50 ([3]; 48 h) [µM] | GI50 ([4]; Homo sapiens, NCI-H460, 48 h) [µM] | GI50 ([5]; 48 h) [µM] | GI50 [6] [µM] | GI50 ([7]; Homo sapiens, HT-29, 48 h) [µM] | GI50 [8] [µM] | GI50 [9] [µM] | GI50 ([4]; 48 h) [µM] | GI50 ([7]; 48 h) [µM] | GI50 ([3]; Homo sapiens, 786-0, 48 h) [µM] | GI50 ([1]; Homo sapiens, U-251, 48 h) [µM] | GI50 ([2]; Homo sapiens, MCF7, 48 h) [µM] | GI50 ([5]; Homo sapiens, PC-3, 48 h) [µM]
1 | CCOC(=O)c1nn(-c2ccccc2)c(-c2ccc(OC)cc2)c1CNC(C)(C)C [listing 1 of 2 here] | 134 | 116 | 537 | 119 | 530 | 0.047 | 61.3 | 66.6 | 68.3 |  |  |  |  |  | 
2 | CCOC(=O)c1nn(-c2ccccc2)c(-c2ccccc2)c1CNC(C)(C)C [listing 1 of 2 here] | 81.5 | 81.7 | 144 |  | 39.9 | 1.01 | 69.6 | 9.62 | 77 | 76.9 |  |  |  |  | 
3 | CCOC(=O)c1nn(-c2ccccc2)c(-c2ccc(OC)cc2)c1CNC(C)(C)C [listing 2 of 2 here] | 527 | 244 | 166 |  | 245 | 17.1 |  | 29.8 | 19.2 | 148 | 44.2 |  |  |  | 
4 | CCOC(=O)c1nn(-c2ccccc2)c(-c2ccccc2)c1CNC(C)(C)C [listing 2 of 2 here] | 440 | 504 | 42.4 |  | 91.7 | 195 |  | 113 | 13.3 | 195 | 94.6 |  |  |  | 
5 | CCOC(=O)c1nn(-c2ccc(Cl)cc2)c(-c2ccc(Br)cc2)c1CNC(C)(C)C | > 476 | > 476 | > 476 |  | > 476 | > 476 |  | > 476 | > 476 | > 476 | > 476 |  |  |  | 
6 | CCOC(=O)c1nn(-c2ccccc2)c(-c2ccc(F)cc2)c1CNC(C)(C)C | > 580 | 517 | 319 |  | 82.1 | 92.1 |  | 161 | 32.9 | 179 | 29.9 |  |  |  | 
7 | CCOC(=O)c1nn(-c2ccccc2)c(-c2ccc(Br)cc2)c1CNC(C)(C)C [listing 1 of 2 here] | > 509 | > 509 | > 509 |  | > 509 | > 509 |  | > 509 | > 509 | > 509 | > 509 |  |  |  | 
8 | CCOC(=O)c1nn(-c2ccc(Cl)cc2)c(-c2ccc(C)cc2)c1CNC(C)(C)C | 151 | 141 |  | 277 | 249 | 49.2 |  | 106 | 144 |  | 106 | > 588 |  |  | 
9 | CCOC(=O)c1nn(-c2ccccc2)c(-c2ccc(C)cc2)c1CNC(C)(C)C [listing 1 of 2 here] | 65.4 | 78.2 | 86.1 |  | 59.9 | 0.054 |  | 11.3 | 72.1 | 75.2 | 68.1 |  |  |  | 
10 | CCOC(=O)c1nn(-c2ccccc2)c(-c2ccc(Br)cc2)c1CNC(C)(C)C [listing 2 of 2 here] | 71.9 | 74.2 | 83.9 |  | 15.9 | 2.91 |  | 22 | 61.7 | 118 | 21.8 |  |  |  | 
11 | CCOC(=O)c1nn(-c2ccc(Cl)cc2)c(-c2ccc(Cl)cc2)c1CNC(C)(C)C | > 520 | > 520 | > 520 |  | > 520 | > 520 |  | > 520 | > 520 | > 520 | > 520 |  |  |  | 
12 | CCOC(=O)c1nn(-c2ccccc2)c(-c2ccc(C)cc2)c1CNC(C)(C)C [listing 2 of 2 here] | > 585 | > 585 | > 585 |  | > 585 | > 585 |  | > 585 | > 585 | > 585 | > 585 |  |  |  | 
13 | CCOC(=O)c1nn(-c2ccc(Cl)cc2)c(-c2ccc(F)cc2)c1CNC(C)(C)C |  |  |  | 344 |  | 159 |  | 78.5 | 24.7 |  | 87.1 | > 582 | 519 | > 582 | 405
